In ChEMBL document CHEMBL1201862, “PubChem BioAssay data set” (2004):
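Each compound was tested at five concentrations against cells in 96-well plates for 48 hours. GI50 marks 50% less growth.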 Activity calls are given as the source filed them. Rule as the data show it: active = GI50 up to about 1.1 µM and inactive = higher.

Key:
Test in all cases: NCI tumour cell line growth inhibition, 48 h
[1] = system: 786-0
[2] = system: CAKI-1
[3] = system: CCRF-CEM
[4] = system: HL-60
[5] = system: HT-29
[6] = system: K562
[7] = system: MDA-MB-435
[8] = system: MDA-N
[9] = system: Malme-3M
[10] = system: NCI-H226
[11] = system: NCI-H460
[12] = system: OVCAR-4
[13] = system: RPMI-8226
[14] = system: RXF 393
[15] = system: SF-268
[16] = system: SNB-19
[17] = system: SR
[18] = system: T47D
[19] = system: TK-10
[20] = system: UACC-62

SMILES	GI50 [1]	GI50 [2]	GI50 [3]	GI50 [4]	GI50 [5]	GI50 [6]	GI50 [7]	GI50 [8]	GI50 [9]	GI50 [10]	GI50 [11]	GI50 [12]	GI50 [13]	GI50 [14]	GI50 [15]	GI50 [16]	GI50 [17]	GI50 [18]	GI50 [19]	GI50 [20]
COc1ccc(/C=N/c2c(O)ccc3ccccc23)cc1OC	> 100 µM (inactive)	63.2 µM (inactive)	> 100 µM (inactive)	22.1 µM (inactive)	98.9 µM (inactive)	47.1 µM (inactive)	18.9 µM (inactive)	17.1 µM (inactive)	14.5 µM (inactive)	> 100 µM (inactive)	80.9 µM (inactive)	> 100 µM (inactive)	19.2 µM (inactive)	69.3 µM (inactive)	19.4 µM (inactive)	> 100 µM (inactive)	> 100 µM (inactive)	84.5 µM (inactive)	> 100 µM (inactive)	72.6 µM (inactive)
CCCCCCCCCCCOCCC1C(C(C)OCCN2CCCC2)OC2OC(C)(C)OC21 (stereo not given)	2.62 µM (inactive)	2.4 µM (inactive)	3.6 µM (inactive)	1.11 µM (active)	1.82 µM (inactive)	2.25 µM (inactive)	1.89 µM (inactive)	1.95 µM (inactive)	1.6 µM (inactive)	8.79 µM (inactive)	2.07 µM (inactive)	3.98 µM (inactive)	2.07 µM (inactive)	2.39 µM (inactive)	4.59 µM (inactive)	5.56 µM (inactive)	0.46 µM (active)	2.24 µM (inactive)	2.37 µM (inactive)	1.81 µM (inactive)
COc1cc2[nH]c3c(c2cc1OC)CCN[C@@]31CC[C@@]2(CC3c4c(cc(OC)c(O)c42)CCN3C)C[C@@H]1OC (stereo not given in full)	50.7 µM (inactive)	35.6 µM (inactive)	27.2 µM (inactive)	16.3 µM (inactive)	26.2 µM (inactive)	20.7 µM (inactive)	18.6 µM (inactive)	18.7 µM (inactive)	18.5 µM (inactive)	46.5 µM (inactive)	39.4 µM (inactive)	29 µM (inactive)	25.2 µM (inactive)	21 µM (inactive)	47.1 µM (inactive)	> 81.1 µM (inactive)	12.5 µM (inactive)	20.5 µM (inactive)	29.8 µM (inactive)	22.9 µM (inactive)
